Measurements reported in US4806680A, “3-halovinylglycine antibacterial agents” (Merck & Co., Inc., priority 1987, dated 1989).
In brackets after ≈: the same amount, converted by molar mass. Where a name gives a salt, the structure may show the parent alone.

Columns and labels:
[1] = system: E. coli DC2; assay: Agar dilution assay (M.I.C.); assay type: cell-based; conditions: Escherichia coli, read-out: minimum inhibitory concentration (M.I.C.)
Procedure: (§1) Representative 3-halovinylglycines and amino acid conjugates were tested for antibacterial activity by an agar dilution assay [being an modification of the antagonist-free-medium assay described in: Antimicrobial Agents and Chemotherapy, May 1979, pp 677-683 and pp 684-695]. Compounds assayed include (L) and (D)-3-chlorovinylglycine (HCL salts), (L) norvalyl-(L), (D), and (DL)-3 chlorovinylglycine (CF3 COOH salts), and (L) norvalyl-(L), (D), and (DL)-3 fluorovinylglycine (CF3 COOH) salts.

[2] = system: S. aureus; assay: Agar dilution assay (M.I.C.); assay type: cell-based, Staphylococcus aureus; conditions: for MIC: Staphylococcus aureus, read-out: minimum inhibitory concentration (M.I.C.); for antibacterial activity (in words): vs S. aureus
Procedure: as §1

[3] = system: cystathionine synthetase; conditions: synthesis of cystathionine from serine; cited from earlier work
[4] = system: E. coli; assay: Agar dilution assay (M.I.C.); assay type: cell-based, Escherichia coli; conditions: vs E. coli
Procedure: as §1

[5] = system: K. pneumoniae; assay: Agar dilution assay (M.I.C.); assay type: cell-based, Klebsiella pneumoniae; conditions: vs K. pneumoniae
Procedure: as §1

[6] = system: Strep. faecalis; assay: Agar dilution assay (M.I.C.); assay type: cell-based, Streptococcus faecalis; conditions: vs Strep. faecalis
Procedure: as §1

[7] = system: E. Coli alanine racemase; assay: Inhibition of E. coli alanine racemase; assay type: biochemical
[8] = system: E. coli TEM 2^+; assay: Agar dilution assay (M.I.C.); assay type: cell-based; conditions: Escherichia coli, read-out: minimum inhibitory concentration (M.I.C.)
Procedure: as §1

[9] = system: Sal. typhimurium; assay: Agar dilution assay (M.I.C.); assay type: cell-based; conditions: Salmonella enterica, read-out: minimum inhibitory concentration (M.I.C.)
Procedure: as §1

[10] = system: eleven representative strains of pathogenic bacteria; assay: Agar dilution assay, panel of eleven strains; assay type: cell-based; conditions: for number of test species against which activity is shown: M.I.C. equal to or less than 256 indicates activity, 11 test species
Procedure: as §1
The antibacterial activity of the representative structure I compounds versus eleven representative strains of pathogenic bacteria is shown in the following Table.

C=C(Cl)C(NC(=O)[C@@H](N)CCC)C(=O)O (mixture of isomers) [(L)-NVA--(DL)-Cl--vinylgly, L-norvalyl-D,L-3-chlorovinylglycine]
MIC [1]: 4000 µg/mL
MIC [2]: ≤ 250 µg/mL

C=C(Cl)C(N)C(=O)O (racemic) [racemic 3-chlorovinylglycine, 2-amino-3-chloro-3-butenoic acid]
inactivation of cystathionine synthetase (in words) [3]: not being an inactivator

C=C(Cl)[C@@H](N)C(=O)O [(D)Cl vinylgly, (D)-3-Chlorovinylglycine hydrochloride]
antibacterial activity (in words) [4]: exhibits antibacterial activity
antibacterial activity (in words) [5]: exhibits antibacterial activity
antibacterial activity (in words) [6]: exhibits antibacterial activity
inhibition of alanine racemase (in words) [7]: potent irreversible inhibitor
antibacterial activity (in words) [2]: exhibits antibacterial activity

C=C(Cl)[C@@H](NC(=O)[C@@H](N)CCC)C(=O)O [(L)-NVA--(D)-Cl--vinylgly, L-norvalyl-D-3-chlorovinylglycine]
MIC [1]: 32000 µg/mL (≈ 136 mM)

C=C(F)C(NC(=O)[C@@H](N)CCC)C(=O)O (stereo partly drawn) [(L)-NVA--(DL)-F--vinylgly, (L,DL)-Norvalyl-3-fluorovinylglycine trifluoracetate]
MIC [1]: 4000 µg/mL (≈ 18.3 mM)
MIC [2]: 1000 µg/mL (≈ 4.58 mM)

C=C(Cl)[C@H](NC(=O)[C@@H](N)CCC)C(=O)O [(L)-NVA--(L)-Cl--vinylgly, (L,L)-Norvalyl 3-chlorovinylglycine trifluoroacetate]
MIC [1]: 1000 µg/mL
MIC [8]: 8000 µg/mL
MIC [9]: 64000 µg/mL
number of test species against which activity is shown [10]: 8 of 11

C=C(F)[C@H](NC(=O)[C@@H](N)CCC)C(=O)O [(L)-NVA--(L)-F--vinylgly, (L,L)-Norvalyl-3-fluorovinylglycine trifluoroacetate]
MIC [1]: 2000 µg/mL
MIC [8]: 16000 µg/mL
relative activity in the antibacterial agar dilution assay ([10]; (L,L) versus (L,D) diastereomer): more active
number of test species against which activity is shown [10]: 9 of 11

C=C(Cl)[C@H](N)C(=O)O [(L)Cl vinylgly, L-3-chlorovinylglycine]
antibacterial activity (in words) [5]: exhibits antibacterial activity
antibacterial activity (in words) [6]: exhibits antibacterial activity
inhibition of alanine racemase (in words) [7]: inhibits
antibacterial activity (in words) [2]: exhibits antibacterial activity
